The test system of experiment [1] is Green Peach Aphid (Myzus persicae) (MYZUPE). Nature of the experiment: Bioassays on Green Peach Aphid (GPA), foliar spray on cabbage seedlings. Conditions: 72 h, 200 ppm foliar spray on cabbage seedlings, graded after three days, Abbott-corrected % control, read-out: MYZUPE % Ctrl @ 200 ppm. Type of experiment: in vivo. As to the method:
Certain molecules disclosed in this document were tested against GPA using procedures described in the following example. In the reporting of the results, the “Table 3: GPA (MYZUPE) and sweetpotato whitefly-crawler (BEMITA) Rating Table” was used (See Table Section).
Cabbage seedlings grown in 3-inch pots, with 2-3 small (3-5 cm) true leaves, were used as test substrate. The seedlings were infested with 20-50 GPA (wingless adult and nymph stages) one day prior to chemical application. Four pots with individual seedlings were used for each treatment. Test compounds (2 mg) were dissolved in 2 mL of acetone/methanol (1:1) solvent, forming stock solutions of 1000 ppm test compound. The stock solutions were diluted 5× with 0.025% Tween 20 in H2O to obtain the solution at 200 ppm test compound. A hand-held aspirator-type sprayer was used for spraying a solution to both sides of […] leaves until runoff. Reference plants (solvent check) were sprayed with the diluent only containing 20% by volume of acetone/methanol (1:1) solvent. Treated plants were held in a holding room for three days at approximately 25° C. and ambient relative humidity (RH) prior to grading. […] Percent Control was measured by using Abbott's correction formula (W. S. Abbott, “A Method of Computing the Effectiveness of an Insecticide” J. Econ. Entomol. 18 (1925), pp. 265-267) as follows. […]

Experiment [2] relates to Sweetpotato Whitefly-Crawler (Bemisia tabaci) (BEMITA). Description: Insecticidal test for sweetpotato whitefly-crawler in foliar spray assay on cotton plants. Type of experiment: in vivo. The note with it: 200 ppm foliar spray on cotton plants, graded after 8-9 days, Abbott-corrected % control, read-out: BEMITA % Ctrl @ 200 ppm. As to the method: Cotton plants grown in 3-inch pots, with 1 small (3-5 cm) true leaf, were used as test substrate. The plants were placed in a room with whitefly adults. Adults were allowed to deposit eggs for 2-3 days. After a 2-3 day egg-laying period, plants were taken from the adult whitefly room. Adults were blown off leaves using a hand-held Devilbiss sprayer (23 psi). Plants with egg infestation (100-300 eggs per plant) were placed in a holding room for 5-6 days at 82° F. and 50% RH for egg hatch and crawler stage to develop. Four cotton plants were used for each treatment. Compounds (2 mg) were dissolved in 1 mL of acetone solvent, forming stock solutions of 2000 ppm. The stock solutions were diluted 10× with 0.025% Tween 20 in H2O to obtain a test solution at 200 ppm. A hand-held Devilbiss sprayer was used for spraying a solution to both sides of cotton leaf until runoff. Reference plants (solvent check) were sprayed with the diluent only. Treated plants were held in a holding room for 8-9 days at approximately 82° F. and 50% RH prior to grading. Evaluation was conducted by counting the number of live nymphs per plant under a microscope. Insecticidal activity was measured by using Abbott's correction formula and presented in “Table 4. Biological Data for GPA (MYZUPE) and sweetpotato whitefly-crawler (BEMITA)” (see column “BEMITA”): […]

The structures appear in SMILES notation.

In the case of `C#CCN(C(=O)CCSC)n1cc(-c2cccnc2)nc1C` [Compound 42], the inhibition at 200 ppm in experiment [1] lay in the range of 0 to 80%; in experiment [2] it was 80 to 100%.

Source of the values: patent US20140296068A1, “PESTICIDAL COMPOSITIONS AND PROCESSES RELATED THERETO” (Dow AgroSciences LLC, priority 2011, published 2014).
